Experimental data reported in the NIST ThermoML archive (doi:10.1016/j.jct.2017.03.026).
“And” between values parts separate entries of the source, which are not always exact repeats. Equal values may be shown once.

Assay: molar heat capacity at constant pressure
Conditions: 101.33 kPa, Crystal, Small (less than 1 g) adiabatic calorimetry

O.O.O.O.O.O=S(=O)([O-])[O-].[Cu+2] [copper(II) sulfate pentahydrate]
Conditions | molar heat capacity at constant pressure
301.44 K | 299.02 J/K/mol
301.47 K | 300.17 J/K/mol
301.59 K | 289.49 J/K/mol
302.12 K | 300.57 J/K/mol
302.65 K | 301.05 J/K/mol
302.7 K | 301.5 J/K/mol
302.82 K | 300.42 J/K/mol
303.5 K | 300.72 J/K/mol
303.53 K | 291.77 J/K/mol
303.83 K | 301.92 J/K/mol
303.92 K | 292.06 J/K/mol
304.18 K | 301.47 J/K/mol
304.87 K | 301.52 J/K/mol
305.01 K | 302.77 J/K/mol
305.55 K | 302.32 J/K/mol
305.56 K | 303.47 J/K/mol
306.19 K | 303.64 J/K/mol
306.28 K | 293.59 J/K/mol
306.3 K | 293.93 J/K/mol and 304.42 J/K/mol
306.99 K | 304.54 J/K/mol
307.44 K | 304.69 J/K/mol
307.7 K | 304.19 J/K/mol
308.38 K | 304.52 J/K/mol
308.41 K | 305.57 J/K/mol
308.62 K | 305.54 J/K/mol
308.68 K | 295.75 J/K/mol
309.04 K | 295.5 J/K/mol
309.07 K | 305.39 J/K/mol
309.75 K | 305.67 J/K/mol
309.8 K | 305.39 J/K/mol
310 K | 296 J/K/mol
310.43 K | 305.52 J/K/mol
310.97 K | 306.74 J/K/mol
311.08 K | 296.13 J/K/mol
311.11 K | 306.24 J/K/mol
311.25 K | 307.59 J/K/mol
311.79 K | 306.69 J/K/mol
311.8 K | 297.26 J/K/mol
312.15 K | 307.81 J/K/mol
312.47 K | 307.31 J/K/mol
313.16 K | 307.84 J/K/mol
313.33 K | 308.96 J/K/mol
313.44 K | 298.8 J/K/mol
313.84 K | 308.56 J/K/mol
314.07 K | 309.84 J/K/mol
314.51 K | 309.76 J/K/mol
314.52 K | 309.11 J/K/mol
314.56 K | 298.99 J/K/mol
315.19 K | 310.48 J/K/mol
315.69 K | 310.88 J/K/mol
315.85 K | 300.25 J/K/mol
315.89 K | 310.18 J/K/mol
316.57 K | 310.56 J/K/mol
316.88 K | 312.41 J/K/mol and 311.61 J/K/mol
317.31 K | 309.31 J/K/mol
317.53 K | 300.52 J/K/mol
317.99 K | 311.11 J/K/mol
318.06 K | 312.53 J/K/mol
318.28 K | 301.47 J/K/mol
318.66 K | 311.58 J/K/mol
319.25 K | 313.46 J/K/mol
319.34 K | 313.53 J/K/mol
319.69 K | 314.25 J/K/mol
320 K | 302.2 J/K/mol
320.02 K | 313.28 J/K/mol
320.3 K | 302.56 J/K/mol
320.43 K | 313.61 J/K/mol
320.7 K | 312.78 J/K/mol
320.71 K | 302.82 J/K/mol
321.37 K | 314.2 J/K/mol
321.6 K | 312.51 J/K/mol
322.05 K | 315.53 J/K/mol
322.49 K | 315.5 J/K/mol
322.74 K | 316.33 J/K/mol
322.78 K | 316.4 J/K/mol
323.07 K | 304.17 J/K/mol
323.15 K | 304.37 J/K/mol
323.43 K | 315.9 J/K/mol
323.97 K | 317.18 J/K/mol
324.11 K | 315.95 J/K/mol
